From the supplement of paper PMC13380429

How the values were obtained:
Details in all cases: 72 h
Caco-2 [1] = test: cell viability relative to DMSO; higher = less toxic
Calu-3 [2] = test: as above
U2OS [3] = test: as above
Vero E6 [4] = test: as above
HepG2 [5] = test: as above
Caco-2 [6] = test: relative viability EC50 (midpoint between 100% and the lowest measured viability); higher = less toxic
Calu-3 [7] = test: as above
U2OS [8] = test: as above
Vero E6 [9] = test: as above
HepG2 [10] = test: as above
Caco-2 [11] = test: drug sensitivity score (DSS) for viability; higher = more toxic; extreme values may be limits of the assay
Calu-3 [12] = test: as above
U2OS [13] = test: as above
Vero E6 [14] = test: as above
HepG2 [15] = test: as above

| SMILES | cell viability (Caco-2 [1]; 1 nM) [%] | cell viability (Caco-2 [1]; 10 nM) [%] | cell viability (Caco-2 [1]; 100 nM) [%] | cell viability (Caco-2 [1]; 1000 nM) [%] | cell viability (Caco-2 [1]; 10000 nM) [%] | cell viability (Calu-3 [2]; 1 nM) [%] | cell viability (Calu-3 [2]; 10 nM) [%] | cell viability (Calu-3 [2]; 100 nM) [%] | cell viability (Calu-3 [2]; 1000 nM) [%] | cell viability (Calu-3 [2]; 10000 nM) [%] | cell viability (U2OS [3]; 1 nM) [%] | cell viability (U2OS [3]; 10 nM) [%] | cell viability (U2OS [3]; 100 nM) [%] | cell viability (U2OS [3]; 1000 nM) [%] | cell viability (U2OS [3]; 10000 nM) [%] | cell viability (Vero E6 [4]; 1 nM) [%] | cell viability (Vero E6 [4]; 10 nM) [%] | cell viability (Vero E6 [4]; 100 nM) [%] | cell viability (Vero E6 [4]; 1000 nM) [%] | cell viability (Vero E6 [4]; 10000 nM) [%] | cell viability (HepG2 [5]; 1 nM) [%] | cell viability (HepG2 [5]; 10 nM) [%] | cell viability (HepG2 [5]; 100 nM) [%] | cell viability (HepG2 [5]; 1000 nM) [%] | cell viability (HepG2 [5]; 10000 nM) [%] | relative viability EC50 (Caco-2 [6]) [µM] | relative viability EC50 (Calu-3 [7]) [µM] | relative viability EC50 (U2OS [8]) [µM] | relative viability EC50 (Vero E6 [9]) [µM] | relative viability EC50 (HepG2 [10]) [µM] | drug sensitivity score (Caco-2 [11]) | drug sensitivity score (Calu-3 [12]) | drug sensitivity score (U2OS [13]) | drug sensitivity score (Vero E6 [14]) | drug sensitivity score (HepG2 [15]) |
| --- | --- | --- | --- | --- | --- | --- | --- | --- | --- | --- | --- | --- | --- | --- | --- | --- | --- | --- | --- | --- | --- | --- | --- | --- | --- | --- | --- | --- | --- | --- | --- | --- | --- | --- | --- |
| O=C([O-])CN1CCN(CC(=O)[O-])CCN([C@H](CO)[C@H](O)CO)CCN(CC(=O)[O-])CC1.[Gd+3] (racemic) [gadobutrol] | 107 | 96.2 | 95.5 | 98.8 | 104 | 96.2 | 104 | 109 | 109 | 98.4 | 99.6 | 113 | 100 | 104 | 106 | 100 | 105 | 96.8 | 99.4 | 107 | 97 | 99.2 | 101 | 91.8 | 100 | > 10 | > 10 | > 10 | > 10 | > 10 | 0 | 0 | 0 | 0 | 0 |
| N=C(N)NC(=O)c1cnn(-c2cccc3ncccc23)c1C1CC1 [zoniporide] | 89.6 | 91.8 | 101 | 102 | 95 | 99.8 | 95.1 | 93.8 | 94.5 | 99.6 | 98.8 | 101 | 104 | 100 | 98.6 | 92.7 | 102 | 94.9 | 97.5 | 104 | 89.9 | 99.2 | 105 | 103 | 101 | > 10 | > 10 | > 10 | > 10 | > 10 | 0 | 0 | 0 | 0 | 0 |
| CN1CCN(CCc2ccc(Cl)c(Cl)c2)CC1 [BD-1063] | 98.6 | 100 | 95 | 91.3 | 92.2 | 91.3 | 96.2 | 102 | 96.9 | 101 | 94.2 | 100 | 93.9 | 100 | 95.3 | 105 | 101 | 105 | 95.1 | 93.9 | 108 | 102 | 103 | 92.4 | 87.7 | > 10 | > 10 | > 10 | > 10 | > 10 | 0 | 0 | 0 | 0 | 0.4 |
| CC(=O)Nc1ncc([N+](=O)[O-])s1 [nithiamide] | 96.7 | 97.8 | 103 | 105 | 94.1 | 97.5 | 98.2 | 102 | 110 | 101 | 99.2 | 104 | 97.8 | 103 | 102 | 101 | 99.5 | 100 | 93.4 | 98 | 108 | 91.7 | 95.4 | 92.1 | 96.3 | > 10 | > 10 | > 10 | > 10 | > 10 | 0 | 0 | 0 | 0 | 0 |
| C=C1CC[C@H](O)C/C1=C/C=C1\CCC[C@]2(C)[C@@H]([C@H](C)CCCC(C)C)CC[C@@H]12 [cholecalciferol] | 95.6 | 88.2 | 101 | 103 | 144 | 100 | 102 | 96.5 | 108 | 95.5 | 94.6 | 103 | 96.4 | 100 | 99.4 | 92.1 | 85.5 | 102 | 93.8 | 120 | 90.3 | 82.4 | 92.8 | 93.4 | 84.6 | > 10 | > 10 | > 10 | > 10 | > 10 | 0 | 0 | 0 | 0 | 0 |
| O=C(O)C1=CCCN(CCOC(c2ccc(C(F)(F)F)cc2)c2ccc(C(F)(F)F)cc2)C1 [CI-966] | 101 | 101 | 105 | 100 | 90.4 | 97.6 | 101 | 102 | 98.5 | 96.4 | 101 | 107 | 106 | 98.7 | 98 | 98.2 | 99.4 | 101 | 97.8 | 99.4 | 98.7 | 99.3 | 104 | 95.5 | 109 | > 10 | > 10 | > 10 | > 10 | > 10 | 0 | 0 | 0 | 0 | 0 |
| CC[n+]1c(-c2ccccc2)c2cc(N)ccc2c2ccc(N)cc21 [homidium] | 95.9 | 93.2 | 87.2 | 55.4 | 4.5 | 103 | 98.9 | 93 | 97.7 | 26.4 | 97.1 | 96 | 98.4 | 87.8 | 39.2 | 92.8 | 100 | 90.5 | 94.5 | 85.3 | 107 | 101 | 88 | 64.5 | 35.7 | 0.984 | 2.94 | 1.74 | > 10 | 0.679 | 10.7 | 4.4 | 5.3 | 0.1 | 8.1 |
| CN(C)CC/C=C1/c2ccccc2COc2ccccc21 [doxepin] | 90.4 | 100 | 97.4 | 102 | 99.6 | 89 | 101 | 97.9 | 97.7 | 89.9 | 94.9 | 101 | 98.7 | 102 | 103 | 100 | 96.8 | 96.7 | 91.1 | 106 | 103 | 85.4 | 115 | 97.4 | 99.3 | > 10 | > 10 | > 10 | > 10 | > 10 | 0 | 0 | 0 | 0 | 0 |
| CC[C@H](/C=C/[C@@H](C)[C@H]1CC[C@H]2[C@@H]3CC=C4C[C@@H](O)CC[C@]4(C)[C@H]3CC[C@]12C)C(C)C [Stigmasterol (Stigmasterin)] | 102 | 107 | 94.6 | 93.5 | 96.9 | 95 | 103 | 110 | 102 | 104 | 105 | 96.4 | 100 | 99.3 | 99.4 | 99 | 104 | 99.4 | 106 | 102 | 103 | 109 | 92.9 | 92.8 | 105 | > 10 | > 10 | > 10 | > 10 | > 10 | 0 | 0 | 0 | 0 | 0 |
| CC1(C)O[C@@H]2C[C@H]3[C@@H]4CCC5=CC(=O)C=C[C@]5(C)[C@H]4[C@@H](O)C[C@]3(C)[C@]2(C(=O)CO)O1 [desonide] | 103 | 106 | 95 | 112 | 120 | 124 | 92.5 | 95 | 101 | 96.9 | 99.5 | 94.9 | 101 | 93.6 | 97.9 | 102 | 102 | 101 | 108 | 99.5 | 102 | 101 | 93.9 | 94.6 | 94.6 | > 10 | > 10 | > 10 | > 10 | > 10 | 0 | 0 | 0 | 0 | 0 |
| CCC[C@@H]1CC(=O)N([C@@H](CC)C(N)=O)C1 [Brivaracetam] | 89.1 | 94.5 | 93.8 | 102 | 98.8 | 100 | 103 | 92.7 | 100 | 97.2 | 102 | 98 | 102 | 96.2 | 99.6 | 89.6 | 96.2 | 88.3 | 97.5 | 107 | 101 | 96.2 | 101 | 97.9 | 114 | > 10 | > 10 | > 10 | > 10 | > 10 | 0 | 0 | 0 | 0 | 0 |
| CCOC(=O)c1ncn2c1CN(C)C(=O)c1cc(F)ccc1-2 [flumazenil] | 95.2 | 99.6 | 99.1 | 102 | 105 | 89.2 | 87.6 | 87.1 | 90.8 | 87 | 99.2 | 103 | 97.3 | 103 | 97.8 | 102 | 97.2 | 100 | 95.4 | 98.8 | 97.8 | 95 | 97.8 | 90.7 | 95.6 | > 10 | > 10 | > 10 | > 10 | > 10 | 0 | 0 | 0 | 0 | 0 |
| CN(C)Cc1cccc(N/C(=C2\C(=O)Nc3cc(C(N)=O)ccc32)c2ccccc2)c1 | 102 | 99.7 | 100 | 88.3 | 107 | 103 | 92.7 | 96.3 | 95.6 | 96 | 96.6 | 94.8 | 99 | 93.5 | 101 | 98.3 | 102 | 95.6 | 96.2 | 102 | 106 | 105 | 89.4 | 112 | 112 | > 10 | > 10 | > 10 | > 10 | > 10 | 0 | 0 | 0 | 0 | 0 |
| COc1ccc(-c2cc(=O)c3c(O)c(OC)c(O)cc3o2)cc1OC [eupatilin] | 98.3 | 94.8 | 94.7 | 96.9 | 92.9 | 92.2 | 101 | 92.6 | 93.9 | 78.5 | 105 | 97.3 | 102 | 99.7 | 101 | 99.6 | 102 | 97.2 | 97.3 | 97.8 | 94.2 | 99 | 85.9 | 99.5 | 90.1 | > 10 | > 10 | > 10 | > 10 | > 10 | 0 | 0.9 | 0 | 0 | 0 |
